ChEMBL document CHEMBL1649449, “Antifungal activities of natural and synthetic iron chelators alone and in combination with azole and polyene antibiotics against Aspergillus fumigatus” (Antimicrob Agents Chemother, 2009)

System: Aspergillus fumigatus
Assay: Antifungal activity against Aspergillus fumigatus B5233 conidia after 16 hrs by fluorescence-based microplate assay at pH 7.2
Assay type: functional, organism-based
Details: B5233, 16 h

SMILES | IC50 [nM]
Cc1c(O)c(=O)ccn1C [DEFERIPRONE] | 1290
Cc1cc(C2CCCCC2)n(O)c(=O)c1 [CICLOPIROX] | 4220
